For the test, the target named is Alpha-glucosidase MAL62 (Saccharomyces cerevisiae, UniProt P07265). As to the kind of experiment: Inhibition of Saccharomyces cerevisiae (baker's yeast) alpha-glucosidase using p-nitrophenyl glucopyranoside as substrate preincubated for 30 min before substrate addition measured after 1 hr by spectrophotometric analysis.
Sequence of Alpha-glucosidase MAL62 (P07265 whole entry): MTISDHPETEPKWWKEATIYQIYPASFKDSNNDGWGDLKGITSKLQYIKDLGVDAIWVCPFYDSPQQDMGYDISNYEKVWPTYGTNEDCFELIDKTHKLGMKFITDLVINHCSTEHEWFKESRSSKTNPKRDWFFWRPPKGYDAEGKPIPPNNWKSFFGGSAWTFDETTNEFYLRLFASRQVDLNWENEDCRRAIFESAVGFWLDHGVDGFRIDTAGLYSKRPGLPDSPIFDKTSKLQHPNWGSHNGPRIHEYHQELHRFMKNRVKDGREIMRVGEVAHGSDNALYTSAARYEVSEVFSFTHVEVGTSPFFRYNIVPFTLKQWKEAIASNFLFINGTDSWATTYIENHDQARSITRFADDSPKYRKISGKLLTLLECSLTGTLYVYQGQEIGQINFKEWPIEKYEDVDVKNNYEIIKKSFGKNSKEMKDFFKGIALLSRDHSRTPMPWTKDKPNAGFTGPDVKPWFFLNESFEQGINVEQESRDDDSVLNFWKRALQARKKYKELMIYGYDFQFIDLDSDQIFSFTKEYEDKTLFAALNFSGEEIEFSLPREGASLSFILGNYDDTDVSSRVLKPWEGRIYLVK

`CC(C)=CCC[C@@H](C(=O)O)[C@H]1CC[C@@]2(C)C3=C(CC[C@]12C)[C@@]1(C)CC[C@H](O)C(C)(C)[C@@H]1CC3` [TRAMETENOLIC ACID] gave an IC50 of 17.1 µM.

These data come from ChEMBL document CHEMBL3045664, “Docking study on trametenolic acid B as a -glucosidase inhibitor” (Med Chem Res, 2012).
